# Measured values reported in US12005050B2, “Methods for preventing or treating H. pylori infection” (TENNOR THERAPEUTICS (SUZHOU) LIMITED, priority 2022, dated 2024).
# Columns and labels:
# [1] = human, in vivo
# Protocol: The 40 patients were randomly allocated to four groups at a ratio of 1:1:1:1. […] The detection linear range was as below: • Compound I: Lower Limit Of Quantitation (LLOQ): 1.00 ng/mL; Upper Limit Of Quantitation (ULOQ): 1,000 ng/mL • Rabeprazole sodium: LLOQ: 2.00 ng/mL; […] […] Pharmacokinetics Evaluation Plasma drug concentrations of various groups at different time points were determined, including: arithmetic mean, standard deviation, minimum, median, maximum, geometric mean, coefficient of variation, and coefficient of geometric variation. The pharmacokinetic parameters calculated from the first and last administration were descriptively analyzed according to various trial groups, including: arithmetic mean, standard deviation, minimum value, median, maximum value, geometric mean, coefficient of variation, geometric coefficient of variation, etc. In addition, the accumulation index AUC0-tau, ss(D15)/AUC0-tau (D1) was calculated. […]
# Helicobacter pylori = details: In China; cited from earlier work
Effect of amoxicillin on the major pharmacokinetic parameters of rabeprazole [1],Compound,Resistance rate of Helicobacter pylori (Helicobacter pylori)
no significant effect,"COCCCOc1ccnc(C[S+]([O-])c2nc3ccccc3[n-]2)c1C.[Na+] (centres unmarked) [rabeprazole, rabeprazole sodium, reference compound]",–
–,Cc1ncc([N+](=O)[O-])n1CCO [metronidazole],40-70%
